Experimental data published in paper PMC6988731 (Bioorganic & medicinal chemistry, 2011).

Target: rat TRPV1 (Rattus norvegicus, UniProt O35433)
Assay: competitive binding assay with [3H]RTX, rat TRPV1 expressed in CHO cells
Conditions: rTRPV1/CHO; for fold less potent than parent 3: receptor activity (binding affinity and antagonism), relative to 3; for fold reduction in binding affinity and antagonism compared to 50: relative to 50

Sequence of rat TRPV1 (O35433 whole entry): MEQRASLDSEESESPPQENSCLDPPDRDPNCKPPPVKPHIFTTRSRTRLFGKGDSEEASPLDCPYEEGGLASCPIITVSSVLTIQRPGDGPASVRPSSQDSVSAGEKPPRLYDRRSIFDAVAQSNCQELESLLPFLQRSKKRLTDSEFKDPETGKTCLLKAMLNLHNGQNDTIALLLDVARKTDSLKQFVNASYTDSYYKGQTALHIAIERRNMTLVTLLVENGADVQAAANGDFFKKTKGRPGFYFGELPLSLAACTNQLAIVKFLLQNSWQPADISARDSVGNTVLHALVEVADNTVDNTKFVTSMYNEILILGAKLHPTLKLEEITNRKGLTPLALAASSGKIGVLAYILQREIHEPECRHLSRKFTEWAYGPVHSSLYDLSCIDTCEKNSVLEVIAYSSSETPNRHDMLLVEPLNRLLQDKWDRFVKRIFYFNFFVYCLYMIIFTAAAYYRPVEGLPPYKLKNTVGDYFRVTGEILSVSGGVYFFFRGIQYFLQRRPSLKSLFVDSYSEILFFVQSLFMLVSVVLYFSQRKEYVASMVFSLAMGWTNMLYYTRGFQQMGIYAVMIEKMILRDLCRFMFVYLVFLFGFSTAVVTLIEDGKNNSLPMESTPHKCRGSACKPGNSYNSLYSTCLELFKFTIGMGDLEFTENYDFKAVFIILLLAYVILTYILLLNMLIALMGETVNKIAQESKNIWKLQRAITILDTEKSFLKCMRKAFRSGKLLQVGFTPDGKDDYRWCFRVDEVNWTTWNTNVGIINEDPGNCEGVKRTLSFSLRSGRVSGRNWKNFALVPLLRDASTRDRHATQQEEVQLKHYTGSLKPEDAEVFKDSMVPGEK

`CC(C(=O)NCc1ccc(I)cc1)c1ccc(NS(C)(=O)=O)c(F)c1` (stereo not shown) [compound 24, 2-(3-Fluoro-4-methanesulfonylamino-phenyl)-N-(4-iodo-benzyl)-propionamide] was tested, and the “fold less potent than parent 3” value was 10 fold.

`CC(C(=O)NCC=C1c2ccccc2C=Cc2ccccc21)c1ccc(NS(C)(=O)=O)c(F)c1` (stereo not shown) [compound 60, N-[2-Dibenzo[a,d]cyclohepten-5-ylidene-ethyl]-2-(3-fluoro-4-methylsulfonylamino-phenyl)-propionamide] was tested, and the “fold reduction in binding affinity and antagonism compared to 50” value was 5–10 fold.

For `CC(C(=O)NCC=C1c2ccccc2CCc2ccccc21)c1ccc(NS(C)(=O)=O)c(F)c1` (stereo not shown) [compound 59, N-[2-(10,11-Dihydro-5H-dibenzo[a,d]cyclohepten-5-yliden)ethyl]-2-[3-fluoro-4-(methylsulfonylamino)phenyl]propionamide], the “fold reduction in binding affinity and antagonism compared to 50” value was 5–10 fold.

For `Cc1ccc(CCCNC(=O)C(C)c2ccc(NS(C)(=O)=O)c(F)c2)cc1C` (stereo not shown) [compound 40, N-[3-(3,4-Dimethylphenyl)propyl]-2-[3-fluoro-4-(methylsulfonylamino)phenyl]propionamide], the “fold less potent than parent 3” value was “ca. 10 fold”.
